Assay results as given in publication PMC13316043, “Structural basis of NSD2 degradation via targeted recruitment of SCF-FBXO22” (Nature Communications, 2026).

Tested on: His-tagged NSD2 PWWP1
Assay: TR-FRET cooperativity (competition) assay: displacement of biotinylated NSD2 ligand UNC7096
Type: binding, human
Source text: Because of the direct interactions observed between FBXO22 and NSD2, we hypothesized that some degree of cooperative binding could facilitate complex stabilization. Therefore, we developed a TR-FRET assay to monitor the interaction between his-tagged NSD2 and a biotinylated NSD2 ligand, UNC7096, that is missing the modality for FBXO22-recruitment (Supplementary Fig. 3D)[20]. Given the positive FRET signal observed when both NSD2 PWWP1 and UNC7096 are present, we used this setup to evaluate the displacement of UNC7096 by UNC10088 in the presence or absence of the FBXO22 FIST domain (Supplementary Fig. 3D). […] Importantly, this FBXO22-dependent enhancement of NSD2 antagonism by UNC10088 was absent when C326 was substituted for alanine (Supplementary Fig. 3F). Taken together, the SCF^FBXO22-NSD2 PWWP1 structure both confirms prior results and provides additional insight into the surfaces that contribute to a cooperative interaction between NSD2 and FBXO22 to promote potent NSD2 polyubiquitination and degradation.
The TR-FRET assay was adapted to assess cooperativity from the following workflows previously reported[39],[40]. Assays were performed in white, low-volume, flat-bottom, nonbinding 384-well microplates (Greiner, Catalog No. 784904) with a final assay volume of 10 μL per well. The assay buffer contained 20 mM Tris–HCl (pH 7.5) and 150mM NaCl, 0.05% Tween-20 (v/v), 2mM DTT, and 1% DMSO (v/v). LANCE Europium (Eu)-W8044 Streptavidin conjugate (2 nM) and LANCE Ultra ULight-anti6x-His labeled antibodies (10 nM) were used as donor and acceptor fluorophores associated with the tracer ligand and protein, respectively. Final assay concentrations of 63 nM His-tagged NSD2 PWWP1 and 31 nM of UNC7096 (a biotinylated version of the NSD2 ligand) as a tracer ligand were used for compound testing. UNC8732, UNC10088, and UNC10415667 were diluted in a 10-point, 3-fold serial dilution, and indicated compounds were pre-incubated with FBXO22 FIST for 30 min. A master mix of NSD2 PWWP1, UNC7096, and TR-FRET reagents was made prior to its addition to the compounds and/or FBXO22 FIST. The plates were sealed with metallic covers, mixed gently for 1 min, and incubated in the dark for 1 h. After 1 h, the plate was read on an EnVision 2103 plate reader with a 320 nm excitation filter and 615 nm/ 665 nm emission filters simultaneously with a dual mirror D400/D630 and a 100 μs delay. […] Raw TR-FRET signals were normalized to a high inhibition control (10 μM of UNC10088) and negative control (1% DMSO). The normalized TR-FRET signals were plotted against the compound concentrations. […] Ki values were calculated from the IC50s using the tight-binding model[41],[42]. The cooperativity factor (α) was calculated as the ratio of Ki (Binary)/ Ki (Ternary), with α > 1 indicating positive cooperativity between NSD2 PWWP1 and FBXO22 FIST based on its disruption of NSD2 binding to UNC7096.

SMILES: O=C1COc2cc(C(=O)N(Cc3ccc(C(=O)Nc4ccc5c(c4)CCN(C(=O)CCCCC(O)S(=O)(=O)O)C5)cc3)C3CC3)ccc2N1 (stereo not drawn) [UNC10088]
- fold reduction of IC50 upon addition of FBXO22 (IC50 alone vs with FBXO22 FIST): about 2.5 fold
- cooperativity factor (α) = Ki (Binary)/Ki (Ternary) (NSD2 PWWP1 with vs without FBXO22 FIST, with preincubation): 3.3
- cooperativity factor (α) without preincubation (compound not preincubated with FBXO22): 3.1
